Reference: article PMC12406685, “Thiazole substitution of a labile amide bond—a new option toward antiplasmodial pantothenamide-mimics” (Antimicrobial Agents and Chemotherapy, 2025)

Legend:
HsPanK3 = target: T1, HsPanK3 (Homo sapiens, UniProt Q9H999); assay: HsPanK kinetic assay (pyruvate kinase/lactic dehydrogenase coupled, NADH at 340 nm); type: biochemical; design: catalytic core domain of human PanK3 (amino acid residues 12–368); made in house; host or cells: E. coli BL21(DE3); conditions: for Substrate inhibition of HsPanK3: at rising substrate concentration (0–2,000 µM)
T1 sequence (Q9H999 12-368): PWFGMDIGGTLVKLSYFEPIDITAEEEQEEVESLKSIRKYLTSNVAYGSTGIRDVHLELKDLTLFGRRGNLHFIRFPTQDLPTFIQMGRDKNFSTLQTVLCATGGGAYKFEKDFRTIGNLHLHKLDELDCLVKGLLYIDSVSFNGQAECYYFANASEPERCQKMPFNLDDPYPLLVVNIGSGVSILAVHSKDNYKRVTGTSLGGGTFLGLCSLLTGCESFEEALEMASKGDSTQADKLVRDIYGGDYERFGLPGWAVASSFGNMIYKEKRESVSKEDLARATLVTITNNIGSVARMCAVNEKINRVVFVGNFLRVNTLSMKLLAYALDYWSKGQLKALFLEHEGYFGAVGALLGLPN
Description: The gene encoding the catalytic core domain of human PanK3 (amino acid residues 12–368) was synthesized and cloned into the pET28a(+) expression vector using the NdeI and BamHI restriction sites to produce an N-terminal His6-tagged protein (Bio Basic Inc.). The plasmid was transformed into E. coli BL21(DE3) cells, which were cultured in Terrific Broth (TB) medium containing 50 µg/mL kanamycin at 37°C. When the culture reached an optical density at 600 nm (OD600) of 0.6, protein expression was induced by adding 1.0 mM isopropyl β-D-thiogalactoside (IPTG), followed by incubation at 18°C for 17–18 h. The cells were then harvested and resuspended in lysis buffer (20 mM Tris-HCl, pH 7.5, 500 mM NaCl, 5 mM imidazole, 5% [vol/vol] glycerol) supplemented with 1 mM PMSF (phenylmethylsulfonyl fluoride) and lysozyme (5 mg/g of the cell pellet). The suspension was then sonicated on ice, and the resulting lysate was centrifuged twice at 54,000 × g for 30 min at 4°C.
The clarified supernatant was incubated with Ni-NTA resin (Cytiva) pre-equilibrated with lysis buffer containing 5 mM imidazole at 4°C. After binding, the resin was washed with lysis buffer containing 30 mM imidazole, then eluted with lysis buffer containing 250 mM imidazole. The eluted HsPanK3 protein was dialyzed against storage buffer (20 mM Tris-HCl, pH 7.5, 200 mM NaCl, 5% [vol/vol] glycerol) and concentrated. The purified protein was stored at −80°C. Protein purity was assessed using SDS-PAGE and deemed >50% (Fig. S4).
The enzyme assay was adapted from a previously described method ([103]), which links the production of ADP to the consumption of NADH through the enzymatic activities of pyruvate kinase and lactic dehydrogenase. Reactions were conducted in 96-well microtiter plates, and the decrease in NADH concentration was measured at 340 nm at 30 s intervals after incubation at 30°C. Each reaction mixture (200 µL) contained the desired compound (substrate) at variable concentrations (0–2,000 µM), ATP (1.5 mM), NADH (0.3 mM), phospho(enol)pyruvate (2.0 mM), MgCl2 (10 mM), KCl (20 mM), a commercial pyruvate kinase/lactic dehydrogenase mixture (12 units, Sigma-Aldrich), and pantothenate kinase (0.48 µM) in 50 mM Tris–HCl buffer (pH 7.6). The reaction was initiated with the addition of ATP. The kinetic parameters were determined by fitting the rate data into the Michaelis–Menten equation using GraphPad Prism 8.0 with nonlinear regressions. Data were collected from three independent experiments, each performed in triplicate to verify the trends and optimize the selected concentrations. The kinetic parameters were calculated from the most complete triplicate set of data, and errors represent SEM.

[1] = system: human hepatoblastoma cells (HepG2); assay: In vitro HepG2 proliferation assay (Incucyte confluency); type: cell-based; conditions: for Proliferation (%) of HepG2 with 200 µM Cpd and 1 µM Pan: 200 µM compound, 72 h, mean ± range/2 of two experiments; for Proliferation (%) of HepG2 with 200 µM Cpd and 1 µM Pan / Effect on HepG2 cells, in words: RPMI-1640 with 1 µM pantothenate
Description: (§1) HFF cells were maintained in vitro in DMEM supplemented with 10% (vol/vol) newborn calf serum, 50 units/mL penicillin, 50 µg/mL streptomycin, 10 µg/mL gentamicin, 0.2 mM L-glutamine, and 0.25 µg/mL amphotericin B, as previously described ([99]). HepG2 cells were maintained in RPMI-1640 medium (Thermo Fisher Scientific, catalogue number 72400120) supplemented with 10% (vol/vol) fetal bovine serum, 50 units/mL penicillin, and 50 µg/mL streptomycin.
In vitro HepG2 proliferation assays were performed similarly to the HFF proliferation assays with modifications. Confluent HepG2 cells were harvested by treatment with 1 × trypsin–EDTA and diluted in RPMI-1640 supplemented with 10% (vol/vol) fetal bovine serum. Assays were set up in 96-well microtiter plates with 20,000 cells per well. Puromycin (10 µM) was used as a non-proliferation control, and 0.1% (vol/vol) DMSO served as a 100% proliferation control. The plates were incubated at 37°C in a CO2 incubator for 72 h, and the Incucyte Live-Cell Analysis System (Essen BioScience) was used to capture cellular changes and assess cell growth in each well over time as described above for the HFF proliferation assays. The bottom of the curve was constrained to 0 when fitting for HepG2 proliferation assays using GraphPad Prism.

[2] = system: human foreskin fibroblasts (HFF); assay: In vitro HFF proliferation assay (Incucyte confluency); type: cell-based; conditions: 200 µM compound, DMEM with 16.8 µM pantothenate, 96 h; mean ± range/2 of two experiments
Description: as §1
In vitro HFF proliferation assays were performed as previously described by Howieson et al. ([32]), with modifications. Confluent HFF cells (in a 75 cm^2 flask) were harvested by treatment with 1 × trypsin–EDTA (0.25% [wt/vol] trypsin +0.2 g/L EDTA) and diluted in 21 mL of DMEM supplemented with 10% [vol/vol] newborn calf serum ([32]). Assays were set up in 96-well microtiter plates in a similar way to that described for the antiplasmodial activity assay. Cycloheximide (10 µM) was used as a non-proliferation control, and 0.1% (vol/vol) DMSO served as a 100% proliferation control. The plates were incubated at 37°C in a CO2 incubator for 96 h, and the Incucyte Live-Cell Analysis System (Essen BioScience) was used to capture cellular changes and assess cell growth in each well over time. Each well was scanned to capture bright field images, and confluency was assessed at the end of the 96 h incubation, which was then used to evaluate the effect of each compound on the proliferation of HFF cells by comparing it to the 100% proliferation control. The bottom of the curve was constrained to 0 when fitting for HFF proliferation assays using GraphPad Prism.

[3] = relative to natural substrate pantothenate

Compound | kcat of HsPanK3 compared with that of pantothenate, in words (HsPanK3) | Fold lower kcat/Km of HsPanK3 compared to pantothenate (HsPanK3; [3]) | Proliferation (%) of HepG2 with 200 µM Cpd and 1 µM Pan [1] | Effect on HepG2 cells, in words ([1]; 200 µM) | Proliferation (%) of HFF with 200 µM Cpd and 16.8 µM Pan [2] | Ki (HsPanK3) | Substrate inhibition of HsPanK3 (HsPanK3) | inhibition at 200 µM ([1]; Homo sapiens, HepG2, 200 µM) | Fold higher Km of HsPanK3 for compound compared to pantothenate (HsPanK3; [3])
CCCCCc1csc(CNC(=O)[C@H](O)C(C)(C)CO)n1 [Compound 1c] | same as | ~ 3 fold | 62 ± 7% | some low-level toxicity | 97 ± 4% | – | – | – | –
CCCCc1csc(CNC(=O)[C@H](O)C(C)(C)CO)n1 [Compound 1a] | same as | – | 71 ± 11% | some low-level toxicity | 100 ± 1% | – | – | – | –
CC(C)(CO)[C@@H](O)C(=O)NCc1csc(Cc2ccccc2)n1 [Compound 2c] | same as | ~ 3 fold | 93 ± 2% | completely inactive | 101 ± 2% | 2.65 mM | Substrate inhibition | – | –
CC(C)(CO)[C@@H](O)C(=O)NCc1nc(CCc2ccccc2)cs1 [Compound 1e] | slightly lower | – | 55 ± 1% | some low-level toxicity | 101 ± 2% | – | – | ~50% | –
CC(C)(CO)[C@@H](O)C(=O)NCc1csc(-c2ccccc2)n1 [Compound 2e] | same as | – | 91 ± 4% | completely inactive | 100 ± 1% | 4.34 mM | Substrate inhibition | – | 2.8 fold
CC(C)(CO)[C@@H](O)C(=O)NCc1cnc(-c2ccccc2)s1 [Compound 3f] | slightly higher | ~ 3 fold | 89 ± 2% | completely inactive | 100 ± 1% | – | – | – | –
